Data from EP0345356A1, “PLATINUM COMPLEX AND THERAPEUTIC AGENT FOR MALIGNANT TUMOR” (TORAY INDUSTRIES, INC., priority 1987, dated 1989).
Values joined by “and” are separate entries in the source; they are usually repeats but may differ in a detail not shown here. Equal entries are not always repeated.

Experiments:
[1] = test system: L1210 murine leukemia cells; assay: Antitumor activity against L1210 leukemia in mice; type: in vivo, CDF1 mice; conditions: for Survival days (mean ± SD) / T/C (%): given on 1st, 5th and 9th days after tumor inoculation; for Survival rate: number of 30 days survival mice / group
Procedure: L1210 murine leukemia cells which were subcultured in DBA/2 mouse were inoculated intraperitoneally into CDF1 mice at 10^5 cells/mouse. Each experimental group was composed of 6-10 mice (male, 6-weeks old). Each test compound was administered three times, i.e., on the 1st, 5th and 9th days after tumor inoculation. […] Each compound was dissolved or suspended in 0.05% "Tween 80" solution and administered in mice.

Slc:ICR mice = assay: Acute toxicity test in mice (LD50, Miller-Tainter method); type: in vivo; conditions: intraperitoneal, Slc:ICR mice (male), death rate on the 14th day
Procedure: Platinum complexes to be tested was administered intraperitoneally to Slc:ICR mice (male, 5 weeks old, 6 mice/group). Each complex was used in the form of a solution or suspension in a 0.05% "Tween 80" in saline. The LD50 value was calculated by the Miller-Tainter method from the death rate on the 14th day from the date of the administration.

NC1CCCCC1N.O=C([O-])C1CCCO1.O=C([O-])C1CCCO1.[Pt+2] (racemic) [XXIV-2, Bis(DL-2-tetrahydrofurancarboxylato)(trans-ℓ-dach)-platinum(II)]
Survival days (mean ± SD) ([1]; Dose 1 mg/kg): 11.5 ± 1.9 days | T/C (%) ([1]; Dose 1 mg/kg): 135% | Survival rate ([1]; Dose 1 mg/kg): 0/6 | Survival days (mean ± SD) ([1]; Dose 10 mg/kg): 20.3 ± 2.7 days | T/C (%) ([1]; Dose 10 mg/kg): 239% | Survival rate ([1]; Dose 10 mg/kg): 0/6 | Survival days (mean ± SD) ([1]; Dose 25 mg/kg): 16.7 ± 4.3 days | T/C (%) ([1]; Dose 25 mg/kg): 196% | Survival rate ([1]; Dose 25 mg/kg): 0/6 | Survival days (mean ± SD) ([1]; Dose 50 mg/kg): 10.2 ± 1.0 days | T/C (%) ([1]; Dose 50 mg/kg): 120% | Survival rate ([1]; Dose 50 mg/kg): 0/6 | Survival days (mean ± SD) ([1]; Dose 100 mg/kg): 6.3 ± 0.8 days | T/C (%) ([1]; Dose 100 mg/kg): 74% | Survival rate ([1]; Dose 100 mg/kg): 0/6 | Survival days (mean ± SD) ([1]; Dose 200 mg/kg): 4.8 ± 1.3 days | T/C (%) ([1]; Dose 200 mg/kg): 57% | Survival rate ([1]; Dose 200 mg/kg): 0/6 | LD50 values (Slc:ICR mice): 45 mg/kg

O=C(C=Cc1ccc(O)cc1)[O][Pt]1([OH])[NH]C2CCCCC2[NH]1 (stereo not drawn) [XXXI-4, β-(4-hydroxyphenyl)acrylate-hydroxo(trans-ℓ-dach)-platinum(II)]
LD50 values (Slc:ICR mice): 117 mg/kg

N.N.O=C([O-])C1(C(=O)[O-])CCC1.[Pt+2] [C B D C A, cis-diammine-1,1-cyclobutanedicarboxylate platinum(II), reference compound]
Survival days (mean ± SD) ([1]; Dose 1 mg/kg): 8.3 ± 0.5 days | T/C (%) ([1]; Dose 1 mg/kg): 98% | Survival rate ([1]; Dose 1 mg/kg): 0/10 | Survival days (mean ± SD) ([1]; Dose 10 mg/kg): 9.3 ± 0.5 days | T/C (%) ([1]; Dose 10 mg/kg): 109% | Survival rate ([1]; Dose 10 mg/kg): 0/10 | Survival days (mean ± SD) ([1]; Dose 25 mg/kg): 10.1 ± 1.3 days | T/C (%) ([1]; Dose 25 mg/kg): 119% | Survival rate ([1]; Dose 25 mg/kg): 0/10 | Survival days (mean ± SD) ([1]; Dose 50 mg/kg): 13.1 ± 2.3 days | T/C (%) ([1]; Dose 50 mg/kg): 156% | Survival rate ([1]; Dose 50 mg/kg): 0/10 | Survival days (mean ± SD) ([1]; Dose 100 mg/kg): 14.1 ± 3.7 days | T/C (%) ([1]; Dose 100 mg/kg): 166% | Survival rate ([1]; Dose 100 mg/kg): 0/10 | Survival days (mean ± SD) ([1]; Dose 200 mg/kg): 9.6 ± 0.7 days | T/C (%) ([1]; Dose 200 mg/kg): 113% | Survival rate ([1]; Dose 200 mg/kg): 0/10

CCOC(=O)CNC(=O)C=CC(=O)[O-].NC1CCCCC1N.[OH-].[Pt+2] [XXIX-1, N-(ethoxycarbonylmethyl)maleamido-hydroxo(trans-ℓ- dach)platinum(II)]
LD50 values (Slc:ICR mice): >200 mg/kg

NC1CCCCC1N.O=C([O-])c1ccco1.O=C([O-])c1ccco1.[Pt+2] (stereo not drawn) [XXIV-1, Bis(2-furancarboxylato)(trans-ℓ-dach)platinum(II)]
Survival days (mean ± SD) ([1]; Dose 1 mg/kg): 9.5 ± 0.8 days | T/C (%) ([1]; Dose 1 mg/kg): 117% | Survival rate ([1]; Dose 1 mg/kg): 0/6 | Survival days (mean ± SD) ([1]; Dose 10 mg/kg): 14.2 ± 2.9 days | T/C (%) ([1]; Dose 10 mg/kg): 175% | Survival rate ([1]; Dose 10 mg/kg): 0/6 | Survival days (mean ± SD) ([1]; Dose 25 mg/kg): 20.2 ± 4.9 days | T/C (%) ([1]; Dose 25 mg/kg): 249% | Survival rate ([1]; Dose 25 mg/kg): 1/6 | Survival days (mean ± SD) ([1]; Dose 50 mg/kg): 17.3 ± 6.3 days | T/C (%) ([1]; Dose 50 mg/kg): 214% | Survival rate ([1]; Dose 50 mg/kg): 1/6 | Survival days (mean ± SD) ([1]; Dose 100 mg/kg): 9.0 ± 1.5 days | T/C (%) ([1]; Dose 100 mg/kg): 111% | Survival rate ([1]; Dose 100 mg/kg): 0/6 | Survival days (mean ± SD) ([1]; Dose 200 mg/kg): 6.0 days | T/C (%) ([1]; Dose 200 mg/kg): 74% | Survival rate ([1]; Dose 200 mg/kg): 0/6 | LD50 values (Slc:ICR mice): 87 mg/kg

CC(=O)N1c2ccccc2CC1C(=O)[O-].CC(=O)N1c2ccccc2CC1C(=O)[O-].NC1CCCCC1N.[Pt+2] (racemic) [XXIII-2, Bis(DL-1-acetylindoline-2-carboxylato)(trans-ℓ-dach)platinum(II)]
Survival days (mean ± SD) ([1]; Dose 1 mg/kg): 8.3 ± 0.5 days | T/C (%) ([1]; Dose 1 mg/kg): 102% | Survival rate ([1]; Dose 1 mg/kg): 0/6 | Survival days (mean ± SD) ([1]; Dose 10 mg/kg): 12.7 ± 8.6 days | T/C (%) ([1]; Dose 10 mg/kg): 157% | Survival rate ([1]; Dose 10 mg/kg): 1/6 | Survival days (mean ± SD) ([1]; Dose 25 mg/kg): 14.2 ± 3.3 days | T/C (%) ([1]; Dose 25 mg/kg): 175% | Survival rate ([1]; Dose 25 mg/kg): 0/6 | Survival days (mean ± SD) ([1]; Dose 50 mg/kg): 13.3 ± 6.1 days | T/C (%) ([1]; Dose 50 mg/kg): 164% | Survival rate ([1]; Dose 50 mg/kg): 0/6 | Survival days (mean ± SD) ([1]; Dose 100 mg/kg): 22.2 ± 9.0 days | T/C (%) ([1]; Dose 100 mg/kg): 274% | Survival rate ([1]; Dose 100 mg/kg): 3/6 | Survival days (mean ± SD) ([1]; Dose 200 mg/kg): 14.0 ± 2.4 days | T/C (%) ([1]; Dose 200 mg/kg): 173% | Survival rate ([1]; Dose 200 mg/kg): 0/6 | LD50 values (Slc:ICR mice): >200 mg/kg

O=C([O][Pt]1([O]C(=O)c2ccc(N3C(=O)C=CC3=O)cc2)[NH]C2CCCCC2[NH]1)c1ccc(N2C(=O)C=CC2=O)cc1 (stereo not drawn) [XXVIII-1, Bis[N-(4-carboxyphenyl)maleimido](trans-ℓ-dach)-platinum(II)]
LD50 values (Slc:ICR mice): 70 mg/kg

N-(4-methoxycarbonylphenyl)maleamido-hydroxo(trans-A-dach)platinum(II) [XXIX-3]
LD50 values (Slc:ICR mice): 48 mg/kg

NC1CCCCC1N.O=C([O-])C=CC(=O)Nc1cccc(O)c1.[OH-].[Pt+2] [XXIX-4, N-(3-hydroxyphenyl)maleamido-hydroxo(trans-ℓ-dach)-platinum(II)]
LD50 values (Slc:ICR mice): 62 mg/kg

N.N.[Cl][Pt][Cl] [C D D P, cis-diamminedichloro platinum(II), reference compound]
Survival days (mean ± SD) ([1]; Dose 0.5 mg/kg): 18.9 ± 5.8 days | T/C (%) ([1]; Dose 0.5 mg/kg): 225% | Survival rate ([1]; Dose 0.5 mg/kg): 0/6 | Survival days (mean ± SD) ([1]; Dose 2.5 mg/kg, 2.5 mg/kg): 14.5 ± 2.5 days and 15.5 ± 1.4 days and 13.0 ± 3.1 days and 14.8 ± 2.7 days | T/C (%) ([1]; Dose 2.5 mg/kg, 2.5 mg/kg): 175% and 191% and 181% | Survival rate ([1]; Dose 2.5 mg/kg): 0/6 | Survival days (mean ± SD) ([1]; Dose 5 mg/kg, 5 mg/kg): 16.3 ± 1.2 days and 18.2 ± 0.4 days and 18.8 ± 4.3 days | T/C (%) ([1]; Dose 5 mg/kg, 5 mg/kg): 201% and 214% and 232% | Survival rate ([1]; Dose 5 mg/kg): 0/6 | Survival days (mean ± SD) ([1]; Dose 7.5 mg/kg, 7.5 mg/kg): 19.0 ± 8.7 days and 19.2 ± 3.0 days and 20.2 ± 4.8 days and 18.7 ± 3.1 days | T/C (%) ([1]; Dose 7.5 mg/kg, 7.5 mg/kg): 229% and 237% and 238% and 231% | Survival rate ([1]; Dose 7.5 mg/kg, 7.5 mg/kg): 1/6 and 0/6

NC1CCCCC1N.O=C([O][Pt][O]C(=O)C1(O)CC(O)C(O)C(O)C1)C1(O)CC(O)C(O)C(O)C1 [XXXII-1, Bis(lR,3R,4R,5R-tetrahydroxycyclohexanecarboxylato)-(trans-ℓ-dach)platinum(II)]
LD50 values (Slc:ICR mice): >200 mg/kg

Bis(2-propenylacrylate)(trans-ℓ-dach)platinum(II) [XXX-1]
LD50 values (Slc:ICR mice): 77 mg/kg

CC1(C(=O)[O][Pt][O]C(=O)C2(C)CCC3(C)CCC4(C)C(=CC(=O)C5C6(C)CCC(O)C(C)(C)C6CCC54C)C3C2)CCC2(C)CCC3(C)C(=CC(=O)C4C5(C)CCC(O)C(C)(C)C5CCC43C)C2C1.NC1CCCCC1N.O.O.O.O (stereo not drawn) [XXXV-1, Bis(β-glycyrrhetinato)(trans-ℓ-dach)platinum(II)-tetrahydrate]
LD50 values (Slc:ICR mice): >150 mg/kg

2-Furanacrylate-hydroxo(trans-i-dach)platinum(II) [XXXI-3]
LD50 values (Slc:ICR mice): >200 mg/kg

NC1CCCCC1N.O=C([O-])CCc1ccc(O)cc1.O=C([O-])CCc1ccc(O)cc1.[Pt+2] [XXXIV-1, Bis(3-(4-hydroxyphenyl)propionato)(trans-ℓ-dach)-platinum(II)]
LD50 values (Slc:ICR mice): 90 mg/kg

O=C(C=Cc1ccc(C(F)(F)F)cc1)[O][Pt]1([OH])[NH]C2CCCCC2[NH]1 (stereo not drawn) [XXXI-5, β-(4-trifluourmethylphenyl)acrylate-hydroxo(trans-ℓ-dach)platinum(II)]
LD50 values (Slc:ICR mice): >200 mg/kg

COC(=O)C(Cc1ccccc1)NC(=O)C=CC(=O)[O-].NC1CCCCC1N.[OH-].[Pt+2] (stereo not drawn) [XXIX-2, N-(dℓ-2-phenyl-1-methoxycarbonylethyl)maleamido-hydroxo(trans-i-dach)platinum(II)]
LD50 values (Slc:ICR mice): >200 mg/kg

NC1CCCCC1N.O=C(CN1C(=O)c2ccccc2C1=O)NCC(=O)[O][Pt][O]C(=O)CNC(=O)CN1C(=O)c2ccccc2C1=O [XXVI-1, Bis(phthaloylglycylglycinato)(trans-ℓ-dach)-platinum(II)]
LD50 values (Slc:ICR mice): >200 mg/kg

CC1(C)CC(=O)C=C(C(=O)[O-])O1.CC1(C)CC(=O)C=C(C(=O)[O-])O1.NC1CCCCC1N.[Pt+2] [XXV-1, bis(3,4-dihydro-2,2-dimethyl-4-oxo-2H-pyrane-6-carboxylato) (trans-k-dach)platinum(II)]
LD50 values (Slc:ICR mice): 192 mg/kg

COCCOCC(=O)[O][Pt][O]C(=O)COCCOC.NC1CCCCC1N [XXVII-1, Bis(methoxyethoxymethylcarboxylato)(trans-ℓ-dach)-platinum(II)]
LD50 values (Slc:ICR mice): 50 mg/kg

2-Propenylacrylate-hydroxo(trans-ℓ-dach)platinum(II) [XXXI-2]
LD50 values (Slc:ICR mice): >200 mg/kg
